The target of one series is T1, Human GLP-1R (Homo sapiens, UniProt P43220).
T1 construct: expressed in transfected cells
The series can be described thus: GLP-1R agonist activity, HTRF cAMP level test in 293A GFP-GLP-1R cells. It is filed as cell-based. The procedure:
GLP-1R-mediated agonist activity was determined by cell-based assays using a homogeneous time-resolved fluorescence (i.e., HTRF)-based cAMP detection kit, which measures the level of cAMP in cells. The method was a competitive immunoassay. It enabled direct pharmacological characterization of compounds acting on Gs-coupled receptors in adherent or suspending cells.
The standard curve of native cAMP or unlabeled cAMP produced by cells competed with d2-labeled cAMP red receptors to bind monoclonal anti-cAMP Eu3+ cryptate donors, and the specific signal was inversely proportional to the concentration of cAMP in standard or tested samples.
Human GLP-1R encoding sequence (NCBI reference sequence NP_002053.3) was subcloned into pEGFP-N1 (tsingke), and the cell line stably expressing the receptor was isolated.
The final DMSO concentration in the buffer mixture was determined to be 1% o.
Cells were collected from a T25 tissue culture flask and centrifuged at room temperature at 1000 rpm for 5 minutes. The cell precipitates were then re-suspended in 1 mL of the stimulating buffer. 20 μL sample of cell suspension was counted on a counter STAR IC 1000 to determine the cell viability and the cell count per mL. The remaining cell suspension was then regulated with the stimulating buffer to deliver 2000 living cells per well using a multi-channel pipette. 5 μL of the cell suspension was added to each well of the plate which already contained the compound. The plate was sealed and incubated at 37° C. with 5% CO2 for 30 minutes.
After 30 minutes of incubation, 5 μL of d2-labeled cAMP and 5 μL of anti-cAMP cryptate (both 1:20 diluted in the cell lysis buffer) were added to each well of the plate. The plate was then incubated at room temperature for 60 minutes, and the changes of HTRF signal were read with Tecan Spark reader: […] at 340 nm (excitation)/at 615 nm and 665 nm (emission). Raw data were converted into nM cAMP by interpolation from the cAMP standard curve, and the effect in percentage was determined relative to the saturated concentration of the complete agonist GLP-17˜37 (400 nM) contained in each plate. Determination of EC50 was performed based on the agonist dose-response curve, which was analyzed using a four-parameter logical dose-response equation with a curve fitting program.
The test data presented the results in the form of a geometric mean (EC50s) based on the number of repetition times.
A general note: Time-resolved FRET reads energy transfer from a long-lived donor to a nearby acceptor.

The nature of series [1]: Metabolic stability in (human) liver microsomes. The format is in vitro ADME. The note with it: pH 7.4, 0.5 mg/mL microsomal protein, 37° C., 0-45 minutes, LC-MS/MS, read-out: LMS(t1/2 min). The protocol:
1. Experimental design: test concentration: […]; control compound: testosterone; culture conditions: cultured at 37° C. for 0, 5, 15, 30, 45 minutes; method of determination: LC-MS/MS; calculation method: T1/2=0.693/K (K is the rate constant of the ln [concentration] vs. incubation time profile), Clint=(0.693/T1/2)×(1/(microsomal protein concentration (0.5 mg/mL)))×scaling factor.
2. Experimental method: 1. preheating 0.1 M K-buffer, […], pH=7.4; 2. test solutions of test compound and reference compound, 500 μM additive solution: 5 μL of 10 mM stock solution was added to 95 μL can; […] and 18.75 μL of 20 Mg/mL liver microsome were added to 479.75 μL of K/Mg buffer; 3. 3×NADPH stock solution (6 mM, 5 mg/mL) was prepared by dissolving NADPH in the buffer solution; 4. 30 μL of 1.5 μM additive solution containing 0.75 mg/mL microsomal solution was distributed to the plates designated for different time points (0, 5, 15, 30, 45 minutes); 5. at 0 min, 150 μL of ACN containing IS was added to the wells of the plate, followed by addition of 15 μL of NADPH stock solution (6 mM, step 3); 6. all other plates were pre-incubated at 37° C. for 5 minutes; 7. adding 15 μL of NADPH stock solution to the plate to start the reaction and timing; 8. 150 μL of ACN containing IS was added to the wells of the corresponding plates to stop the reaction at 5 min, 15 min, 30 min and 45 min, respectively; 9. after quenching, the plates were shaken on a shaker for 10 minutes (600 rpm/min) and then centrifuged at 6000 rpm for 15 minutes; 10. 80 μL of supernatant was transferred from each well to a 96-well sample plate containing 140 μL water for LC/MS analysis.
Detection method: LC-MS/MS-11 (8050), internal standard: tolbutamide; MS conditions: positive ion ESI for testosterone and test compound, and negative ion ESI for tolbutamide; Mobile phases: mobile phase A is 0.1% FA in water, and mobile phase B is 0.1% FA in ACN; Column and specification: ACQUITY UPLC HSS T3 1.8 um 2.1*50 mm.

Another series addresses hERG potassium channel (Homo sapiens, UniProt Q12809). The series can be described thus: Inhibition of hERG potassium channels, whole-cell patch clamp in HEK-hERG cells. The following applies: HEK293 cells stably expressing hERG (HEK-hERG). The procedure: The cell suspension was added to a small petri dish and placed on an inverted microscope stage.
Such a set of pulse programming was repeated every 15 seconds throughout the experiment.

SMILES strings stand for the structures.

Chain of hERG potassium channel (Q12809 whole entry): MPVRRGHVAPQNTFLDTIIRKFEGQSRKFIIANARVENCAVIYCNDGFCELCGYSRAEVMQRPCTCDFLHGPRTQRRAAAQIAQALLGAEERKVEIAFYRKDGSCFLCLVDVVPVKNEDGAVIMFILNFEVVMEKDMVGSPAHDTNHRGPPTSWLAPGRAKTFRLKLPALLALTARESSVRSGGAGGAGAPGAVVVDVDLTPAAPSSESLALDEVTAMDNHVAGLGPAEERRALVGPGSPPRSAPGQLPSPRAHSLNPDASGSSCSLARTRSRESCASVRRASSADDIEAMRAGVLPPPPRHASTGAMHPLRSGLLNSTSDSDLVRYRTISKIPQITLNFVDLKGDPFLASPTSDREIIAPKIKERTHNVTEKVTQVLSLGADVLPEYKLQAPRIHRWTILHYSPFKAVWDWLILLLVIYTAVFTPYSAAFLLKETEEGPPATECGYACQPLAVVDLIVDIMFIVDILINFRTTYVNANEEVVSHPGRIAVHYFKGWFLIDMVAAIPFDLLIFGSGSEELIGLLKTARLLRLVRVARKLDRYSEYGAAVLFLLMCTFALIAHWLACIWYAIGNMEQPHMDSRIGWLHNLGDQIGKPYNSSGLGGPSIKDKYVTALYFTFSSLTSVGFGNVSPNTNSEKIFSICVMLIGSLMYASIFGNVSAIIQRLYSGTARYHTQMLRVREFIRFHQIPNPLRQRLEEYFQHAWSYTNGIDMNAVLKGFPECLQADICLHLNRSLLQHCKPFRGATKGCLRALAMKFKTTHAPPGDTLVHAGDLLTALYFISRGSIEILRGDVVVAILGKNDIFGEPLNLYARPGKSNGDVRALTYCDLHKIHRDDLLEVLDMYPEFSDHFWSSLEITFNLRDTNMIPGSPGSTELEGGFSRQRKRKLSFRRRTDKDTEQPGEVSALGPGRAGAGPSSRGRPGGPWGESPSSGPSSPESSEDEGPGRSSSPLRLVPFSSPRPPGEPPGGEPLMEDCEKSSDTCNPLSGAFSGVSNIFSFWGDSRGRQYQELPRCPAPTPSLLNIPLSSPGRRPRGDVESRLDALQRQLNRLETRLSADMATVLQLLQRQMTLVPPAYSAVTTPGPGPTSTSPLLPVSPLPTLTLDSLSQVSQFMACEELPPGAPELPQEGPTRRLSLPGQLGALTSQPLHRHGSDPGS
T1 sequence (P43220 24-463): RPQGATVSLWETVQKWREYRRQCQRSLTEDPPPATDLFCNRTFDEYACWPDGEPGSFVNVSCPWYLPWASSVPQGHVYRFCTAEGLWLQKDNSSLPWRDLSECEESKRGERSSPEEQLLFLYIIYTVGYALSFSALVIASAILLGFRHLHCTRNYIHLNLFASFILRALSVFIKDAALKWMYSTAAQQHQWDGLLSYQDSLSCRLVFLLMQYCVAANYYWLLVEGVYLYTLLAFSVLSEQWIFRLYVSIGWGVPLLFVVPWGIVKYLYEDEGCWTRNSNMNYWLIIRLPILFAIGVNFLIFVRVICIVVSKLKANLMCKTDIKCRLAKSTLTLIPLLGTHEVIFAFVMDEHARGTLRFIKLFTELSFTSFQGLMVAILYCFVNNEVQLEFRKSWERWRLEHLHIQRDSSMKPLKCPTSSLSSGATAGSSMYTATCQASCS

For the molecule `N#Cc1ccc(COc2ccc3c(n2)C2=C(COC3)CN(Cc3nc4ccc(C(=O)O)cc4n3C[C@@H]3CCO3)CC2)s1` [Compound 12, (S)-2-((2-((5-cyanothiophen-2-yl)methoxy)-5,8,10,11-tetrahydro-oxepino[4,3-b:6,5-c′]dipyridin-9(7H)-yl)methyl)-1-(oxetan-2-ylmethyl)-1H-benzo[d]imidazole-6-carboxylic acid], the response at Human GLP-1R was half-maximal at 0.5 nM (EC50). Further, the half-life at 1 μM in series [1] came to 59.8 min.

For `O=C(O)c1ccc2nc(CN3CCC(c4cccc(OCc5cc6ccncc6s5)n4)CC3)n(C[C@@H]3CCO3)c2c1` [Compound 10, 1-(oxetan-2-ylmethyl)-2-((4-(6-(thieno[2,3-c]pyridin-2-ylmethoxy)pyridin-2-yl)piperidin-1-yl)methyl)-1H-benzo[d]imidazole-6-carboxylic acid], the EC50 – broadly, the concentration giving half of the maximal effect – at Human GLP-1R was found to be 0.05 nM. In addition, the half-life at 1 μM in series [1] stood at 22.5 min.

At Human GLP-1R, `CC(=O)c1ccc(COc2cccc(C3CCN(Cc4nc5ccc(C(=O)O)cc5n4C[C@@H]4CCO4)CC3)n2)s1` [Compound 1, (S)-2-((4-(6-((5-acetylthiophen-2-yl)methoxy)pyridin-2-yl)piperidin-1-yl)methyl)-1-(oxetan-2-ylmethyl)-1H-benzo[d]imidazole-6-carboxylic acid] registered an EC50 of 4.67 nM. On hERG potassium channel, 1 µM produced 9.82% inhibition and the inhibition (commonly the percentage by which the read-out fell short of the control) at 10 µM is 53.8%. The half-life at 1 μM in series [1] amounted to 115 min. Take `O=C(O)c1ccc2nc(CN3CCC(c4cccc(OCc5ccc(C(=O)C6CC6)s5)n4)CC3)n(C[C@@H]3CCO3)c2c1` [Compound 6, (S)-2-((4-(6-((5-(cyclopropanecarbonyl)thiophen-2-yl)methoxy)pyridin-2-yl)piperidin-1-yl)methyl)-1-(oxetan-2-ylmethyl)-1H-benzo[d]imidazole-6-carboxylic acid]: on Human GLP-1R, a half-maximal response (EC50) required 0.03 nM. `N#Cc1ccc(COc2cccc(C3CCN(Cc4nc5ccc(C(=O)O)cc5n4C[C@@H]4CCO4)CC3)n2)s1` [Compound 4, (S)-2-((4-(6-((5-Cyanothiophen-2-yl)methoxy)pyridin-2-yl)piperidin-1-yl)methyl)-1-(oxetan-2-ylmethyl)-1H-benzo[d]imidazole-6-carboxylic acid] had a concentration for a half-maximal effect (EC50) on Human GLP-1R of 1 nM. At hERG potassium channel, this molecule displayed an inhibition at 1 µM of 14.2% and an inhibition at 10 µM of 72.2%. Also, the half-life at 1 μM in series [1] came to 132 min. `N#Cc1cc(Cl)c(COc2cccc(C3CCN(Cc4nc5ccc(C(=O)O)cc5n4C[C@@H]4CCO4)CC3)n2)s1` [Compound 7, (S)-2-((4-(6-((3-chloro-5-cyanothiophen-2-yl)methoxy)pyridin-2-yl)piperidin-1-yl)methyl)-1-(oxetan-2-ylmethyl)-1H-benzo[d]imidazole-6-carboxylic acid] returned an EC50 on Human GLP-1R of 0.02 nM. The half-life at 1 μM in series [1] amounted to 21.2 min. Consider `N#Cc1sc(COc2cccc(C3CCN(Cc4nc5ccc(C(=O)O)cc5n4C[C@@H]4CCO4)CC3)n2)cc1Cl` [Compound 8, (S)-2-((4-(6-((4-chloro-5-cyanothiophen-2-yl)methoxy)pyridin-2-yl)piperidin-1-yl)methyl)-1-(oxetan-2-ylmethyl)-1H-benzo[d]imidazole-6-carboxylic acid], for which a half-maximal response on Human GLP-1R (EC50) required 0.05 nM.

Take `CC(=O)c1cc(COc2cccc(C3CCN(Cc4nc5ccc(C(=O)O)cc5n4C[C@@H]4CCO4)CC3)n2)cs1` [Compound 3, (S)-2-((4-(6-((5-acetylthiophen-3-yl)methoxy)pyridin-2-yl)piperidin-1-yl)methyl)-1-(oxetan-2-ylmethyl)-1H-benzo[d]imidazole-6-carboxylic acid]: on Human GLP-1R, the midpoint of the response, the EC50, lay at 121 nM. Consider `CC(=O)c1cc(Cl)c(COc2cccc(C3CCN(Cc4nc5ccc(C(=O)O)cc5n4C[C@@H]4CCO4)CC3)n2)s1` [Compound 5, (S)-2-((4-(6-((5-acetyl-3-chlorothien-2-yl)methoxy)pyridin-2-yl)piperidin-1-yl)methyl)-1-(oxetan-2-ylmethyl)-1H-benzo[d]imidazole-6-carboxylic acid], for which, on Human GLP-1R, a half-maximal effect (EC50) was put at 0.56 nM. Besides, the half-life at 1 μM in series [1] stood at 37.3 min. For the molecule `Cc1cc(C#N)sc1COc1cccc(C2CCN(Cc3nc4ccc(C(=O)O)cc4n3C[C@@H]3CCO3)CC2)n1` [Compound 11, (S)-2-((4-(6-((5-cyano-3-methylthiophen-2-yl)methoxy)pyridin-2-yl)piperidin-1-yl)methyl)-1-(oxetan-2-ylmethyl)-1H-benzo[d]imidazole-6-carboxylic acid], the EC50 at Human GLP-1R was 0.1 nM. The molecule `CC(=O)c1csc(COc2cccc(C3CCN(Cc4nc5ccc(C(=O)O)cc5n4C[C@@H]4CCO4)CC3)n2)c1` [Compound 2, (S)-2-((4-(6-((4-acetylthiophen-2-yl)methoxy)pyridin-2-yl)piperidin-1-yl)methyl)-1-(oxetan-2-ylmethyl)-1H-benzo[d]imidazole-6-carboxylic acid] returned an EC50 at Human GLP-1R of 88.8 nM.

For `O=C(O)c1ccc2nc(CN3CCC(c4cccc(OCc5ccc(-c6cncnc6)s5)n4)CC3)n(C[C@@H]3CCO3)c2c1` [Compound 13], the EC50 at Human GLP-1R was 0.47 nM. Molecule `O=C(O)c1ccc2nc(CN3CCC(c4cccc(OCc5ccc(C(F)(F)F)s5)n4)CC3)n(C[C@@H]3CCO3)c2c1` [Compound 9, (S)-1-(oxetan-2-ylmethyl)-2-((4-(6-((5-(trifluoromethyl)thiophen-2-yl)methoxy)pyridin-2-yl)piperidin-1-yl)methyl)-1H-benzo[d]imidazole-6-carboxylic acid] registered an EC50 at Human GLP-1R of 0.08 nM. Against the preceding molecule, the EC50 is about 5.9-fold lower.

These data come from US20240208952A1, “THIOPHENE GLP-1 RECEPTOR AGONIST AND USE THEREOF” (priority 2021, published 2024).
